Experimental data reported in article PMC10641814 (Journal of Medicinal Chemistry, 2023).

Assays:
[1] = target: T1, h5-HT6R (Homo sapiens, UniProt P50406); test: 5-HT6R radioligand binding ([3H]-LSD) in HEK293 cells stably expressing h5-HT6R; details: 2 nM [3H]-LSD, mean of three independent experiments, read-out: Ki ± SEM [nM] 5-HT6R
T1 construct: expressed in transfected cells

[2] = target: T2, hMAO-B (Homo sapiens, UniProt P27338); test: MAO-B inhibition, fluorometric method, p-tyramine substrate; format: biochemical; details: two experiments in duplicate
T2 construct: purchased Sigma-Aldrich M7441
T2 sequence (P27338 1-520): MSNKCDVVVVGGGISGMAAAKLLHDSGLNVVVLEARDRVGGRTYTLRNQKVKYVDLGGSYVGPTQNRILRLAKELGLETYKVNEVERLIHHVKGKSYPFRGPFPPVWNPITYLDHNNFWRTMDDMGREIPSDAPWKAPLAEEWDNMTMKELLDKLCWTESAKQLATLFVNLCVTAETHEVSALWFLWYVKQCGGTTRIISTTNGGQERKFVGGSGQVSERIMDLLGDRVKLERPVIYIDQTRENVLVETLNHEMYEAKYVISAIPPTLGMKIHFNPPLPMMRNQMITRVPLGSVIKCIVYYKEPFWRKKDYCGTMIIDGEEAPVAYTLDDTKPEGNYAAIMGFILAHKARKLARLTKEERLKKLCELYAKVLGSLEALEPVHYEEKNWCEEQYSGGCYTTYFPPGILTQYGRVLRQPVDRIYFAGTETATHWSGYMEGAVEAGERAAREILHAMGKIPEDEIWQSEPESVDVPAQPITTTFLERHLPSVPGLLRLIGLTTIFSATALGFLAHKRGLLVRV

[3] = target: T2, hMAO-B; test: MAO-B reversibility study; format: biochemical; details: at concentrations corresponding to IC80, p-tyramine raised to 1 mM
[4] = test system: oAβ25–35-induced memory deficits in rats; test: oAβ25–35-induced memory deficits in T-maze test in rats; format: in vivo, rat
Experimental: For the AD model, adult male Sprague–Dawley rats (Janvier Lab., France) weighing 260–280 g (8 weeks) at the beginning of the experiments were housed 1 week before experiments in a standard animal facility of the University of Montpellier (CECEMA, registration number E34-172-23) (12/12 h light/dark cycle with lights on at 07:00; 21 ± 1 °C, food and water ad libitum). All experiments, including sacrifices, were performed in conscious rats between 09:00 and 12:00, during the diurnal period of the circadian rhythm. Male has been preferred over female because the latter may present a confounding factor of the estrous cycle, a parameter that needs to be systematically controlled. Animal procedures were conducted in strict adherence to the European Union Directive of 2010 (2010/63/EU). The National French Animal Welfare Committee and the local committee at the University of Montpellier approved all protocols (authorization: CEEA-LR-12160). All efforts were made to minimize the number of animals used, potential pain, suffering, and distress.
As previously detailed,[37],[64] to induce the acute model of AD (oAβ25–35 model), rats were divided into three groups. One group had no surgery (Naive group), a second set of animals received an intracerebroventricular (icv) injection of incubated scrambled peptide (negative control groups—10 μg/rat—Sc), and a third set received an icv injection of oAβ25–35 (AD groups—10 μg/rat—Aβ). The animals were anesthetized with an intraperitoneal (ip) injection of a mixture of ketamine and xylazine (80 and 10 mg/kg b.w., respectively). Scrambled peptide and oAβ25–35 were injected directly into the lateral ventricles at a rate of 2 μL/min using a David-Kopf stereotaxic apparatus (coordinates of injection: AP −1 mm, L ±1.5 mm, DV −3.5 mm).
1—A curative approach: This treatment was started 1 week after the induction of amyloid toxicity (icv injection of oAβ25–35) and consisted of 2 ip injections (1.5 mg/kg per injection) per day for 1 week. On day 14, animals were subjected to a behavioral memory test (T-maze) and sacrificed on day 15 by decapitation.
(§1) 2—A preventive approach: This treatment was started at the same time as the induction of amyloid toxicity and consisted of implanting ip, and during the same anesthetic procedure necessary for the icv injection of oAβ25–35, an osmotic pump (Alzet-EML2, Charles-River, France) which continuously delivered the molecules for 1 week at the dose of 3 mg/kg/day. On day 7, animals were submitted to a behavioral memory test (T-maze) and sacrificed on day 8 by decapitation.
As previously reported, the T-maze test was used to rapidly assess cognitive ability in rats, especially the short-term memory deficits, when performed in two successive sessions.[37],[38],[64],[65] The T-maze consisted of two short arms (A and B), extending from a longer alley (C) and enclosed with high walls. The test involved two trials, separated by 1 h. During the training session, one short arm (B) was closed. Rats were placed at the end of the long alley, allowed to visit the maze for 10 min, and then returned to their home cage. […] The number of visits and time spent in each arm were measured. The results were expressed as the ratio of the time spent in the initially closed novel arm, over the time spent in the previous arm, and as a ratio of the number of entries into the novel arm over the familiar one. […]

[5] = test system: hippocampus of rats injected with oAβ25–35; test: Western blot of hippocampal AD biomarkers in oAβ25–35-injected rats; format: in vivo, rat; details: oAβ25–35 icv
Experimental: As previously detailed,[37],[64] to induce the acute model of AD (oAβ25–35 model), rats were divided into three groups. […] The animals were anesthetized with an intraperitoneal (ip) injection of a mixture of ketamine and xylazine (80 and 10 mg/kg b.w., respectively). Scrambled peptide and oAβ25–35 were injected directly into the lateral ventricles at a rate of 2 μL/min using a David-Kopf stereotaxic apparatus (coordinates of injection: AP −1 mm, L ±1.5 mm, DV −3.5 mm).
On day 14, animals were subjected to a behavioral memory test (T-maze) and sacrificed on day 15 by decapitation.
as §1
At the time of sacrifice, all hippocampi were dissected out, weighed, and rapidly frozen in liquid nitrogen for Western blot (WB) analysis.
Western blot analyses were performed on the whole hippocampus as previously described.[37] All antibodies used are detailed in Table S3. Briefly, after sacrifice, hippocampi were microdissected, weighed, immediately frozen in liquid nitrogen, and stored at −20 °C. Tissues were sonicated (VibraCell; Sonics & Materials, USA) in a lysis buffer[37] and centrifuged (4 °C). Supernatants were collected, and the protein concentration was measured using a bicinchoninic Acid (BCA) assay (ThermoFisher Scientific, France). […] The membranes were incubated overnight (4 °C) with the primary antibody, washed, and then incubated for 2 h with the appropriate horseradish peroxidase-conjugated secondary antibody. […] The intensity of the immunoreactive signals was quantified using Image-J software (NIH, Bethesda, […], USA). β-Tubulin (β-Tub) was used as a loading control for all experiments.

[6] = 1.5 mg/kg ip twice a day for 7 days

T1 sequence (P50406 whole entry): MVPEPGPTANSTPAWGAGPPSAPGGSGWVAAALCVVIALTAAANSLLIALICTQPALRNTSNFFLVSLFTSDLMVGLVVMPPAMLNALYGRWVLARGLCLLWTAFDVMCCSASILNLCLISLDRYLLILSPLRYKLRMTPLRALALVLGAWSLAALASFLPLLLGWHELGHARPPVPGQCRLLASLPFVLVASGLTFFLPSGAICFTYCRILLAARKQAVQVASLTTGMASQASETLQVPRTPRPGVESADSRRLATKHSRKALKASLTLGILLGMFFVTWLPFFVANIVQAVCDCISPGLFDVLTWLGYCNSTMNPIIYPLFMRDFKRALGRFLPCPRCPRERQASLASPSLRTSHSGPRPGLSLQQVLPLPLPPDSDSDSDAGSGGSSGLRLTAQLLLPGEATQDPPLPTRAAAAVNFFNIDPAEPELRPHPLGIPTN

| SMILES | Ki [1] [nM] | pIC50 ± SEM (MAO-B) [2] | also measured |
| --- | --- | --- | --- |
| Cl.Clc1cccc(CNc2ccnc(N3CCNCC3)c2)c1 [Compound 26] | 5450 ± 793 | 5.18 ± 0.04 | – |
| C#CCN[C@@H]1CCc2ccccc21 [Rasagiline] | – | – | reversibility of MAO-B inhibition (recovery of MAO-B activity) [3]: irreversible inhibitor |
| Cl.Clc1cccc(Cn2ccc3c(N4CC5(CCNC5)C4)nc4ccccc4c32)c1 [Compound 20, 1-(3-Chlorobenzyl)-4-(2,6-diazaspiro[3.4]octan-2-yl)-1H-pyrrolo[3,2-c]quinoline Hydrochloride] | 677 ± 82 | 7.01 ± 0.11 | – |
| CNC1CN(c2nc3ccccc3c3c2ccn3Cc2cccc(Cl)c2)C1.Cl [Compound 15] | 723 ± 87 | 8.22 ± 0.14 | – |
| O=S(=O)(c1ccccc1)c1cnc2c(N3CCNCC3)cccc2c1 [Intepirdine, reference compound] | – | – | effect on oAβ25–35-induced memory deficits in T-maze, curative treatment ([4]; 1.5 mg/kg ip twice a day for 7 days, started 1 week after icv oAβ25–35): only partially reversed the memory deficits; effect on oAβ25–35-induced memory deficits in T-maze, preventive treatment ([4]; 3 mg/kg/day by ip osmotic pump for 1 week, concomitant with icv oAβ25–35): did not exhibit the same preventive effect; hippocampal Caspase-3 and Pro-caspase-3 expression, curative strategy [5, 6]: decreased expression of Caspase-3 and Pro-caspase-3; hippocampal PSD-95 and SYN levels, curative treatment [5, 6]: reversed only the SYN level; hippocampal Caspase-3 and Pro-caspase-3 expression, preventive treatment ([5]; 3 mg/kg/day osmotic pump 1 week): prevented increased expression of Caspase-3 and Pro-caspase-3; hippocampal GFAP increase ([5]; curative and preventive approach): Neither PZ-1922 nor intepirdine impacted the GFAP increase |
| COc1cccc(Cn2ccc3c(N[C@H]4CCNC4)nc4ccccc4c32)c1.Cl [Compound 8] | 25 ± 3 | 6.86 ± 0.07 | – |
| Cl.Clc1cccc(CNc2cc(N3CCNCC3)nc3ccccc23)c1 [Compound 25] | 152 ± 18 | 5.36 ± 0.03 | – |
| Cl.Clc1cccc(Cn2ccc3c(NC[C@@H]4CCCN4)nc4ccccc4c32)c1 [Compound 10, (S)-1-(3-Chlorobenzyl)-N-(pyrrolidin-2-ylmethyl)-1H-pyrrolo[3,2-c]quinolin-4-amine Hydrochloride] | 226 ± 30 | 6.52 ± 0.04 | – |
| Cl.Clc1cccc(Cn2ccc3c(NC[C@H]4CCNC4)nc4ccccc4c32)c1 [Compound 11] | 140 ± 18 | 8.02 ± 0.12 | – |
| Cl.Clc1cccc(Cn2ccc3c(NC[C@@H]4CCNC4)nc4ccccc4c32)c1 [Compound 12] | 122 ± 10 | 6.52 ± 0.04 | – |
| CN(C)C1CCN(c2nc3ccccc3c3c2ccn3Cc2cccc(Cl)c2)CC1.Cl [Compound 19] | 1270 ± 173 | 5.60 ± 0.02 | – |
| Cl.Clc1cccc(Cn2ccc3c(C4CCNCC4)nc4ccccc4c32)c1 [Compound 23, 1-(3-Chlorobenzyl)-4-(piperidin-4-yl)-1H-pyrrolo[3,2-c]quinoline Hydrochloride] | 541 ± 80 | 6.13 ± 0.06 | – |
| Cl.Clc1cccc(Cn2ccc3c(N4CCCNCC4)nc4ccccc4c32)c1 [Compound 17] | 138 ± 15 | 7.69 ± 0.12 | – |
| Cl.Clc1cccc(Cn2ccc3c(NC[C@H]4CCCN4)nc4ccccc4c32)c1 [Compound 9] | 214 ± 26 | 5.70 ± 0.04 | – |
| Cl.Clc1cccc(Cn2ccc3c(N[C@@H]4CCNC4)nc4ccccc4c32)c1 [Compound 6] | 30 ± 4 | 6.83 ± 0.01 | – |
| Cl.Clc1cccc(Cn2ccc3c(CN4CCNCC4)nc4ccccc4c32)c1 [Compound 24] | 119 ± 14 | 5.21 ± 0.02 | – |
| Cl.Clc1cccc(Cn2ccc3c(N4CC5(CNC5)C4)nc4ccccc4c32)c1 [Compound 21] | 920 ± 127 | 6.97 ± 0.05 | – |
| Cl.Clc1cccc(Cn2ccc3c(N4C[C@H]5C[C@@H]4CN5)nc4ccccc4c32)c1 [Compound 18] | 372 ± 48 | 6.73 ± 0.02 | – |
| Cl.Clc1cccc(Cn2ccc3c(C4=CCNCC4)nc4ccccc4c32)c1 [Compound 22] | 34 ± 4 | 6.67 ± 0.04 | – |
| Cl.c1ccc(Cn2ccc3c(N[C@H]4CCNC4)nc4ccccc4c32)cc1 [Compound 3] | 21 ± 3 | 6.57 ± 0.03 | – |
| Cl.Clc1cccc(Cn2ccc3c(N[C@H]4CCNC4)nc4ccccc4c32)c1 [Compound 5, (S)-1-(3-Chlorobenzyl)-N-(pyrrolidin-3-yl)-1H-pyrrolo[3,2-c]quinolin-4-amine Hydrochloride] | 7 ± 1 | 6.92 ± 0.04 | – |
| Brc1cccc(Cn2ccc3c(N[C@H]4CCNC4)nc4ccccc4c32)c1.Cl [Compound 7] | 10 ± 1 | 6.89 ± 0.12 | – |
| Cl.NC[C@@H]1CCN(c2nc3ccccc3c3c2ccn3Cc2cccc(Cl)c2)C1 [Compound 14] | 1520 ± 220 | 8.00 ± 0.00 | – |
| CN(C)C1CCN(c2nc3ccccc3c3c2ccn3Cc2cccc(Cl)c2)C1.Cl (stereo not drawn) [Compound 13] | 1340 ± 156 | 7.43 ± 0.04 | – |
| C[C@H](NCc1ccc(OCc2cccc(F)c2)cc1)C(N)=O [Safinamide] | – | – | reversibility of MAO-B inhibition (recovery of MAO-B activity) [3]: reversible MAO-B inhibitors |
| Cl.Fc1cccc(Cn2ccc3c(N[C@H]4CCNC4)nc4ccccc4c32)c1 [Compound 4] | 21 ± 2 | 6.16 ± 0.05 | – |
